Measurements: US20130143855A1, “METHOD TO ALLEVIATE DIABETIC END STAGE RENAL DISEASE” (BOARD OF REGENTS OF THE UNIVERSITY OF TEXAS SYSTEM, priority 2010, published 2013)

Assays:
[1] = tested on: peroxynitrite generation in kidney mitochondria; assay: Linoleic acid-induced peroxynitrite generation in kidney mitochondria; type: in vivo, mouse; details: db/db-HF-D; did not reach statistical significance; FIG. 4F
Method: (§1) Kidney mitochondria were prepared from db/+ or db/db mice and LA-induced [Ca^2+]m and peroxynitrite were assessed as previously described.

[2] = tested on: LA-induced [Ca2+]m efflux in kidney mitochondria; assay: Linoleic acid-induced [Ca2+]m efflux in kidney mitochondria; type: in vivo, mouse
Method: as §1

[3] = tested on: kidney glomeruli and tubules of HF-fed db/db mice; assay: Kidney histopathology (HE, PAS, Masson's trichrome) of HF-fed mice; type: in vivo, mouse
Text: (§2) Male db/db (BKS.Cg-m+/+Lepr^db/J), age and sex matched db/+ mice were acquired from Jackson Laboratories at age of 10 weeks and housed 4/cage or less. Animals were habitat for 2 weeks in a temperature- and humidity-controlled facility with a 12:12-h light-dark cycle, fed ad libitum with RD (7012 Teklad LM-485, Harlan Laboratories) and had free access to water.
(§3) The mice were challenged with HF (60.3% calories from fat, TD.06414, Harlan Laboratories) starting at 12 weeks of age as depicted in FIG. 1A. The HF challenge was divided into two phases: the first phase lasted 2 weeks followed by a 4-week RD feeding. The second phase of HF feeding followed the 4-week RD interval and continued to the end of the experiments (5 weeks). At the beginning of the second HF feeding, db/db mice were randomly divided into 2 groups and intraperitoneally injected with either Saline (vehicle, db/db-HF-S) or 17-DMAG (6.5 μg/Kg bodyweight, db/db-HF-D). The animal protocols were approved by the Institutional Animal Care and Use Committee (0707-001), UT Health Science Center at San Antonio.
Formalin-fixed, paraffin-embedded kidney sections were stained with haematoxylin and eosin (HE), periodic acid-Schiff (PAS), or Masson's trichrome and analyzed to evaluate kidney damages in a blinded manner. The area of glomerular PAS staining was measured by image analysis using Image-Pro Plus 4.5 (Media Cybernetics, Silverspring, Md.). A semi-quantitative assessment was performed in HE stained slides to evaluate the extent of tubular damage and graded from 1 to 5 as follows: 1: vacuolation of cytoplasm in <20% of tubules; 2: vacuoles in 20% to 40% of tubules; 3: vacuoles in 40% to 60% tubules with minimal distortion of tubular structures; 4: vacuoles in 60% to 80% of tubules with large and marked distortion of tubular profiles, pyknotic nuclei, patches of tubular atrophy and tubular degeneration; and 5: >80% of tubules with severe vacuolation, or tubular atrophy and degeneration. The fractal collagen volume was assessed by point counter grid using ImageJ (NIH) program to quantify the blue stain in the trichrome-stained sections.

[4] = tested on: db/db mice challenged with high fat diet (HF), ESRD model; assay: Kidney function of HF-fed db/db mice (24 h urinary albumin, urine output, serum creatinine); type: in vivo, mouse
Text: as §2, §3
Urine collection and other physical parameters were measured following the schedule in FIG. 1A. 24 h urine samples were collected from individual mice and urinary albumin concentration was determined using a murine albumin enzyme-linked immunosorbent assay (Albuwell M Kit; Exocell, Philadelphia, Pa.). Serum creatinine concentrations were determined by the Creatinine Companion kit (Exocell).

[5] = biological target: T1, hsp90β1 (Mus musculus, UniProt P08113); assay: Western blot of hsp90β1 in kidney homogenate and isolated kidney mitochondria; type: in vivo; details: db/db-HF-D vs db/db-HF-S, daily injection
T1 construct: We measured the effect of daily 17-DMAG injection on hsp90β1 levels in the kidney of db/db-HF mice; from tissue; host or cells: kidney homogenate and isolated kidney mitochondria of HF-fed db/db mice
Method: (§4) Western blot or immunochemistry was performed with polyclonal (pAb) and/or monoclonal (mAb) primary antibodies to detect hsp90β1 and 3-NT levels as previously described. The primary antibodies used in western blots were as follows: mAb anti-3-NT (1:1000, clone 1A6, Millipore); rabbit pAb anti-3-NT (1:1000, Millipore); pAb anti-GRP94 (1:1000, Santa Cruz Biotechnology), mAb anti-Complex 1 (1:2000) and mAb anti-α-tubulin (1:1000). For the immunochemistry staining with mouse antibody, a specific procedure was performed as previously described to eliminate the direct interaction between antigen and secondary antibody.

[6] = tested on: polyunsaturated fatty acid-induced mitochondrial Ca2+ efflux (PIMCE); details: applicant's previous studies, basis of the dose; cited from earlier work
[7] = tested on: 3-nitrotyrosine (3-NT) in kidney; assay: 3-NT levels in kidney by western blot and immunochemistry; type: in vivo, mouse; details: db/db-HF-D vs db/db-HF-S
Method: as §4

[8] = biological target: hsp90β1 (Homo sapiens, UniProt P14625); details: prolonged treatment of cells; cited from earlier work
[9] = tested on: HF-fed db/db mice with ESRD; assay: Kaplan-Meyer survival analysis of HF-fed mice; type: in vivo, mouse
Text: as §3
Results presented as mean±S.E and Student's t-test was used to evaluate the differences between two groups. Kaplan-Meyer survival analysis was performed using the log-rank statistic to test for a significant difference among the survival curves. Differences were considered statistically significant at P<0.05.

[10] = db/db-HF-D vs db/db-HF-S, FIG. 2G/2H

T1 sequence (P08113 22-802): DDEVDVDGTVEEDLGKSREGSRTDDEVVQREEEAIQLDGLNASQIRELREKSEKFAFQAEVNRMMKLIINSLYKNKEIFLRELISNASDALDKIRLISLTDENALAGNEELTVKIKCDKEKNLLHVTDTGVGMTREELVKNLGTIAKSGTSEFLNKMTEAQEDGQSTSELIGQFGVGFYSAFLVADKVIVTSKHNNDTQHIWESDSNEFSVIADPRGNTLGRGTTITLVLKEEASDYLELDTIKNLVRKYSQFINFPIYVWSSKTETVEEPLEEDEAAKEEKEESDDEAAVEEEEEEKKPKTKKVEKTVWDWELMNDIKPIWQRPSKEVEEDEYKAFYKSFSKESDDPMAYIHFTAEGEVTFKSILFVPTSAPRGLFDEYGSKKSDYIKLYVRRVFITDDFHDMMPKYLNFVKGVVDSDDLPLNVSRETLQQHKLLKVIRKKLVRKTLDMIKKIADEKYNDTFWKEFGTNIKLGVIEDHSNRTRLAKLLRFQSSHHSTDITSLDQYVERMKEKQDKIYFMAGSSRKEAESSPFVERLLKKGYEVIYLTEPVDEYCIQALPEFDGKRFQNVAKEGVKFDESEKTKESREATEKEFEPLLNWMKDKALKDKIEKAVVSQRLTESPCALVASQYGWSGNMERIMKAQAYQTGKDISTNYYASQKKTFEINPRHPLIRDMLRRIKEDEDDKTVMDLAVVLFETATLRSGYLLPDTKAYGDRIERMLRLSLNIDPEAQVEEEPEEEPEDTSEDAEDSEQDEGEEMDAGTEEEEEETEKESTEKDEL
hsp90β1 (Homo sapiens, UniProt P14625), sequence (P14625 22-803): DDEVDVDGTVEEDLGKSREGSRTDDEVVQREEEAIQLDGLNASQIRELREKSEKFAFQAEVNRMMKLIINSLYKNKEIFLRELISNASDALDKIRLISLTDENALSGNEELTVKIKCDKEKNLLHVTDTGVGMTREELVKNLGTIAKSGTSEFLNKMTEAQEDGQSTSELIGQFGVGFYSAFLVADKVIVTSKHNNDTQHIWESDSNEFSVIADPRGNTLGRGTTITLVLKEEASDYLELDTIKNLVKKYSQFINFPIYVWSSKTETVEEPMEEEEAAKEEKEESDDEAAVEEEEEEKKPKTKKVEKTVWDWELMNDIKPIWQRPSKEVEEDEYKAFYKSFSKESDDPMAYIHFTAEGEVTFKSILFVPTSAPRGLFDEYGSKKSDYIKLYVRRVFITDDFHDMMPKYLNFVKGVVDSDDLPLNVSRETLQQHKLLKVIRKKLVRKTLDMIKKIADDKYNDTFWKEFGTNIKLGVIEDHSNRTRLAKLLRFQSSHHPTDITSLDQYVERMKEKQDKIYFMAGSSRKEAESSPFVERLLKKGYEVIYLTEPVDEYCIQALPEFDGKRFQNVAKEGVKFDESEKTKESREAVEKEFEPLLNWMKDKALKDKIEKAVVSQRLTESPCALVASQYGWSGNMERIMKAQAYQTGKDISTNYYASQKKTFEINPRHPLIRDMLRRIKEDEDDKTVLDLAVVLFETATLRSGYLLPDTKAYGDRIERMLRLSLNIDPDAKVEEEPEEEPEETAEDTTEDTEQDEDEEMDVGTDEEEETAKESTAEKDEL

## 17-dimethylaminoethylamino-17-demethoxygeldanamycin [17-DMAG]
[1]
  LA-induced peroxynitrite generation: attenuated
[2]; db/db-HF-D vs db/+
  rate and amplitude of LA-induced [Ca2+]m signal, difference between db/db-HF-D and db/+ groups: no significant differences
[2]; db/db-HF-D vs db/db-HF-S, FIG. 4C-E
  LA-induced [Ca2+]m efflux in kidney mitochondria: significantly diminished
[2]; db/db-HF-D vs db/db-HF-S, FIG. 4D, 4E
  rate and amplitude of LA-induced [Ca2+]m responses: effectively attenuated
[3]; HF-fed db/+ mice treated with 17-DMAG, FIG. 2B
  glomerular and tubular abnormalities in HF-fed db/+ mice: did not exhibit any glomerular and tubular abnormalities
[3]; db/db-HF-D group (also in db/db-HF-S)
  tubular vacuolation: evidenced
[3]; db/db-HF-D vs db/db-HF-S, FIG. 2C/2D
  segmental glomerulosclerosis (HE staining, 100×): largely prevented
[3]; db/db-HF-D vs db/db-HF-S, FIG. 2E/2F
  tubular atrophy and degeneration (HE staining): dramatic protection
[3]; [10]
  segmental glomerulosclerosis and mesangial matrix expansion (PAS, 200×), glomerular lesions: amiiorated
  tubulointerstitial fibrosis (PAS-stained tubulointerstitium): largely prevented
[3]; db/db-HF-D vs db/db-HF-S, FIG. 2I/2J
  accumulation of tubulointerstitial collagen (Masson's trichrome): effectively reduced
[3]; db/db-HF-D vs db/db-HF-S, FIG. 2K
  tubular damage (index, morphometric quantification): significant alleviation
[3]; db/db-HF-D vs db/db-HF-S, FIG. 2L
  mesangial matrix expansion (morphometric quantification): significant alleviation
[3]; db/db-HF-D vs db/db-HF-S, FIG. 2M
  collagen accumulation (morphometric quantification): significant alleviation
[4]; db/db-HF-D (6.5 μg/kg i.p. daily) vs db/db-HF-S, from 17th day of second HF feeding, FIG. 1E
  24 h urine output: significantly preserved
[4]; db/db-HF-D (6.5 μg/kg i.p. daily, second HF challenge) vs db/db-HF-S, FIG. 1D
  24 h urinary albumin excretion (albuminuria): significantly diminished
[4]; db/db-HF-D, 6.5 μg/kg i.p. daily
  serum creatinine, difference between db/db-HF-D and db/+ groups: no significant difference
[4]; db/db-HF-D, 6.5 μg/kg i.p. daily, FIG. 1F
  serum creatinine compared to db/db-HF-S group: significantly lowered
[5]; FIG. 4A
  hsp90β1 levels in kidney homogenates: similar
[5]; FIG. 4B
  hsp90β1 levels in isolated kidney mitochondria: significantly reduced
[6]
  inhibition on PIMCE: maximal inhibition
  toxicity to cells: did not produce apparent toxicity
[7]; FIG. 5C-E
  3-NT in kidney sections by immunohistochemistry: effectively reduced
[7]; kidney homogenates, FIG. 5A
  3-NT level, bands with MW<50kDa, western blot with polyclonal anti-3-NT antibody: significant 3-NT level reduction
[7]; kidney homogenates, FIG. 5B
  3-NT levels in proteins <50 kDa, western blot with monoclonal antibody: significantly lowered
[8]
  degradation and downregulation of hsp90β1: caused degradation and downregulation
[9]; db/+-HF-S and db/+-HF-D groups
  mortality in HF-fed db/+ mice: no mortality
[9]; db/db-HF-D vs db/db-HF-S, log-rank, FIG. 3
  survival rate: significantly improved
